Tested on: PBMC of Stage D HF subjects
Assay: PBMC basal and maximal OCR of Stage D HF patients pre- and post-oral NR
Type: in vivo, human
Conditions: oral NR 5-9 days, post vs pre
Procedure: For experiments associated with the oral NR administration (FIGS. 12C-12F), 5 hospitalized Stage D HF patients undergoing advanced heart failure therapy evaluations were put on escalating doses of NR (250 mg twice a day for Day 1, 500 mg twice a day for Day 2, and 1000 mg twice a day from Day 3 on) for 5-9 days. Fasting blood samples were obtained for PBMC isolation at baseline and post-NR administration. Subject 5 was withdrawn due to a change in clinical course deemed to be independent from NR administration. PBMC and Monocyte isolation. 30-60 ml of fasting blood was collected into EDTA-containing Vacutainers (BD Mfr #364606). Blood then was diluted (1:1) with RPMI medium (Corning; Cat #17-105-CV) and applied to Histopaque gradient medium (Sigma-Aldrich; Cat #10771) using SepMate-50 (STEMCELL Technologies), and centrifuged at 1200 g for 10 minutes. Top layer contained the enriched peripheral blood mononuclear cells (PBMCs) which were collected and followed by centrifugation at 300 g for 10 minutes. The pellet was resuspended with ACK lysis buffer (Gibco; Cat. A1049201) and incubated at room temperature for 5 minutes to remove residual red blood cells. […] When available, the remaining cells were used for cytokine mRNA quantitative PCR and in vitro assays. […] Oxygen consumption rate (OCR) of freshly isolated PBMCs was assessed using a Seahorse XFe24 analyzer (Agilent Technologies). […]

SMILES: NC(=O)c1ccc[n+]([C@@H]2O[C@H](CO)[C@@H](O)[C@H]2O)c1 [NR, nicotinamide riboside]
- PBMCs basal OCR: consistent enhancement
- PBMCs maximal OCR: consistent enhancement

— patent US20230263817A1, “HIGH DOSE NICOTINAMIDE ADENINE DINUCLEOTIDE (NAD) PRECURSOR REGIMENS FOR REDUCTION OF INFLAMMATION IN HUMAN PATIENTS WITH PREEXISTING INFLAMMATION” (University of Washington, priority 2021, published 2023)
